Target: T1, P2X7 receptor (Homo sapiens, UniProt Q99572)
T1 construct: stably expressing the full length P2X7 receptor; expressed in transfected cells
T1 sequence (Q99572 1-595): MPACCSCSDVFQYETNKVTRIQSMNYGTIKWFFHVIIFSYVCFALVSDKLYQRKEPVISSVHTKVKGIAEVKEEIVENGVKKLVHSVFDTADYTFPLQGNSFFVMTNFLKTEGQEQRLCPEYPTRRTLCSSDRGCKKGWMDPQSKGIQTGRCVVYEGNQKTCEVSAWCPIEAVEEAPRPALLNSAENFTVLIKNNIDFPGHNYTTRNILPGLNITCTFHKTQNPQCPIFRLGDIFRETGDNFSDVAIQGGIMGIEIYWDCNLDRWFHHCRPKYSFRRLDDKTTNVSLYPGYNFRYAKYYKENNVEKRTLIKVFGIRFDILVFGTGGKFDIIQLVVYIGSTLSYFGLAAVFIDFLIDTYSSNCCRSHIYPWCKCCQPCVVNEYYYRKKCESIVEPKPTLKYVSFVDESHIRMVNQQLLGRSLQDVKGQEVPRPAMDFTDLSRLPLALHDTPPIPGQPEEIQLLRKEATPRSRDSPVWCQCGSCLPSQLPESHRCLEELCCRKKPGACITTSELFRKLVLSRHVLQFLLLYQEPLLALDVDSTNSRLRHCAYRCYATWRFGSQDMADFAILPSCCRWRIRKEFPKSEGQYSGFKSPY
Assay: Ca++ flux assay (FLIPR) in P2X7-HEK-293 cell line stably expressing the full length P2X7 receptor, Bz-ATP activation
Format: cell-based
Details: P2X7-HEK-293 cells; agonist Bz-ATP; fluorescence as total area over 90 seconds; read-out: P2X7 Ca Flux hu IC50
Procedure, shortened: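 HEK-293 cells stably expressing full-length P2X7 were loaded with Ca++-sensitive dye for 1 h, with compound added during loading. Cells were stimulated with Bz-ATP on FLIPR. Fluorescence was integrated as total area over 90 s, and IC50 was taken as 50% inhibition of the maximal Ca++ response.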

SMILES | IC50
Cc1c(-n2ccn3c(S(=O)(=O)Cc4cccc5c4-c4ccccc4C5)nnc3c2=O)cccc1C(F)(F)F [Compound 159, 3-((9H-fluoren-4-yl)methylsulfonyl)-7-(2-methyl-3-(trifluoromethyl)phenyl)-[1,2,4]triazolo[4,3-a]pyrazin-8(7H)-one] | 1130 nM
Cc1onc(-c2ccccc2)c1CS(=O)(=O)c1nnc2c(=O)n(-c3cccc(C(F)(F)F)c3C)ccn12 [Compound 160, 7-(2-methyl-3-(trifluoromethyl)phenyl)-3-((5-methyl-3-phenylisoxazol-4-yl)methylsulfonyl)-[1,2,4]triazolo[4,3-a]pyrazin-8(7H)-one] | 284 nM
Cc1c(Cl)cccc1-n1ccn2c(S(=O)(=O)Cc3cc(Cl)cc(Cl)c3)nnc2c1=O [Compound 161, 7-(3-chloro-2-methylphenyl)-3-(3,5-dichlorobenzylsulfonyl)-[1,2,4]triazolo[4,3-a]pyrazin-8(7H)-one] | 335 nM
Cc1c(Cl)cccc1-n1ccn2c([S+]([O-])Cc3cc(Cl)cc(Cl)c3)nnc2c1=O (stereo not shown) [Compound 162, 7-(3-chloro-2-methylphenyl)-3-(3,5-dichlorobenzylsulfinyl)-[1,2,4]triazolo[4,3-a]pyrazin-8(7H)-one] | 335 nM
Cc1c(-n2ccn3c(S(=O)(=O)CC(=O)c4ccccc4)nnc3c2=O)cccc1C(F)(F)F [Compound 163, 7-(2-methyl-3-(trifluoromethyl)phenyl)-3-(2-oxo-2-phenylethylsulfonyl)-[1,2,4]triazolo[4,3-a]pyrazin-8(7H)-one] | 3110 nM
Cc1c(-n2ccn3c(S(=O)(=O)Cc4ccccc4-c4ccc(C(F)(F)F)cc4)nnc3c2=O)cccc1C(F)(F)F [Compound 164, 7-(2-methyl-3-(trifluoromethyl)phenyl)-3-((4′-(trifluoromethyl)biphenyl-2-yl)methylsulfonyl)-[1,2,4]triazolo[4,3-a]pyrazin-8(7H)-one] | 629 nM
Cc1c(-n2ccn3c(S(C)(=O)=O)nnc3c2=O)cccc1C(F)(F)F [Compound 165, 7-(2-methyl-3-(trifluoromethyl)phenyl)-3-(methylsulfonyl)-[1,2,4]triazolo[4,3-a]pyrazin-8(7H)-one] | 5680 nM
Cc1c(Cl)cccc1-n1ccn2c(NCc3ccccc3-c3ccccc3)nnc2c1=O [Compound 166, 3-(biphenyl-2-ylmethylamino)-7-(3-chloro-2-methylphenyl)-[1,2,4]triazolo[4,3-a]pyrazin-8(7H)-one] | 585 nM
Cc1c(Cl)cccc1-n1ccn2c(NC(c3ccccc3)c3ccccc3)nnc2c1=O [Compound 167, 3-(benzhydrylamino)-7-(3-chloro-2-methylphenyl)-[1,2,4]triazolo[4,3-a]pyrazin-8(7H)-one] | 1040 nM
Cc1c(Cl)cccc1-n1ccn2c(NCCc3ccccc3)nnc2c1=O [Compound 168, 7-(3-chloro-2-methylphenyl)-3-(phenethylamino)-[1,2,4]triazolo[4,3-a]pyrazin-8(7H)-one] | 3150 nM
Cc1c(Cl)cccc1-n1ccn2c(N(C)Cc3ccccc3)nnc2c1=O [Compound 169, 3-(benzyl(methyl)amino)-7-(3-chloro-2-methylphenyl)-[1,2,4]triazolo[4,3-a]pyrazin-8(7H)-one] | 1590 nM
Cc1c(Cl)cccc1-n1ccn2c(N(Cc3ccccc3)Cc3ccccc3)nnc2c1=O [Compound 170, 7-(3-chloro-2-methylphenyl)-3-(dibenzylamino)-[1,2,4]triazolo[4,3-a]pyrazin-8(7H)-one] | 106 nM
Cc1c(Cl)cccc1-n1ccn2c(N(Cc3ccccc3)CC3CC3)nnc2c1=O [Compound 171, 3-(benzyl(cyclopropylmethyl)amino)-7-(3-chloro-2-methylphenyl)-[1,2,4]triazolo[4,3 - a]pyrazin-8(7H)-one] | 229 nM

Reference: patent US20130196986A1 (priority 2010, published 2013)
